Measurements: ChEMBL document CHEMBL3603826, “6-Arylpyrazine-2-carboxamides: A New Core for Trypanosoma brucei Inhibitors” (J Med Chem, 2015)
Converted amounts (≈) assume the structure as drawn.

Tests used:
[1] = system: Trypanosoma brucei brucei; test: Anti-parasitic activity against Trypanosoma brucei brucei 427 bloodstream parasites incubated for 48 hrs by alamar blue dye based assay; format: functional, organism-based; details: Trypanosoma brucei, 427, 48 h
Plasmodium falciparum = test: Anti-parasitic activity against chloroquine and pyrimethamine resistant Plasmodium falciparum K1 erythrocytic stages infected in human erythrocytes incubated for 48 hrs by [3H]-hypoxanthine incorporation assay; format: functional, organism-based
[2] = system: Trypanosoma brucei rhodesiense; test: Anti-parasitic activity against Trypanosoma brucei rhodesiense STIB 900 trypomastigotes incubated for 70 hrs by alamar blue dye based assay; format: functional, organism-based; details: STIB 900, 70 h
Leishmania donovani = test: Anti-parasitic activity against Leishmania donovani MHOM/ET/67/L82 axenic amastigotes incubated for 70 hrs by alamar blue dye based assay; format: functional, organism-based; details: MHOM/ET/67/L82, 70 h
[3] = Selectivity index, ratio of cytotoxic IC50 for rat L6 cells to EC50 for anti-parasitic activity against Trypanosoma brucei rhodesiense STIB 900; format: toxicity, cell-based; details: read-out: Ratio IC50/EC50
Trypanosoma cruzi = test: Anti-parasitic activity against Trypanosoma cruzi Tulahuen C2C4 trypomastigotes infected rat L6 cells incubated for 96 hrs by CPRG/nonidet substrate based […]; format: functional, organism-based; details: Tulahuen C2C4, L6, 96 h
[4] = Selectivity index, ratio of cytotoxic IC50 for HEK293 cells to EC50 for anti-parasitic activity against Trypanosoma brucei brucei 427 bloodstream parasites; format: toxicity, cell-based; details: human, read-out: Ratio IC50/EC50
[5] = Toxicity against rat L6 cells incubated for 70 hrs by alamar blue dye based assay; format: cell-based
[6] = Kinetic solubility in pH 2.0 0.01M HCl buffer by nephelometry; format: physicochemical; details: read-out: Kinetic_solubility
[7] = Intrinsic clearance in human liver microsomes assessed per mg protein at pH 7.4 at 0.5 uM in presence of NADPH regenerating system by LC-MS method; format: ADME; details: read-out: CLH
[8] = Partition coefficient, logD of the compound at pH 7.4 by HPLC method; format: physicochemical; details: octanol/water
[9] = Kinetic solubility in pH 6.5 phosphate buffer by nephelometry; format: physicochemical; details: read-out: Kinetic_solubility
[10] = Stability assessed as degradation half life; format: physicochemical
serum albumin = serum albumin (Homo sapiens, UniProt P02768); test: Binding affinity to human serum albumin by chromatographic method; format: ADME; details: read-out: PB (converted)
Sequence of serum albumin (P02768 whole entry): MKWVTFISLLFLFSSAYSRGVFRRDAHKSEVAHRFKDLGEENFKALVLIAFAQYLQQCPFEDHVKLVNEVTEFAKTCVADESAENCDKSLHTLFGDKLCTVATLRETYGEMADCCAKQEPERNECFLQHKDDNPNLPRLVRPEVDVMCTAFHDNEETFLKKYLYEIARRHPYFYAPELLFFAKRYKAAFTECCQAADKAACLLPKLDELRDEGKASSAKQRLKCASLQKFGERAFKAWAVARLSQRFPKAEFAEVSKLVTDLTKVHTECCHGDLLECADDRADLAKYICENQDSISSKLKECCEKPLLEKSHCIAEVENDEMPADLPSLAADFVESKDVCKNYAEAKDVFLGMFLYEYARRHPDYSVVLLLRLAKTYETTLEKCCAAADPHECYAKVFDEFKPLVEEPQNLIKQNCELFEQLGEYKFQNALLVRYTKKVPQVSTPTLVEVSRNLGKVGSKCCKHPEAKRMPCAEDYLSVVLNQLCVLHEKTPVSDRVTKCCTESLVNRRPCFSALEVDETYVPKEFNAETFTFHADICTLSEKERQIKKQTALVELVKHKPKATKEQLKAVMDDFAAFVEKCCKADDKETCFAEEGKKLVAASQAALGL

Compound | EC50 [1] [nM] | selectivity ratio [4] | further results
Nc1ncc(-c2ccccc2)nc1C(=O)Nc1ccccc1 | > 10000 | – | –
CCC(C)NC(=O)c1nc(-c2ccccc2)cnc1N (configuration not stated) | 490 | > 263 | EC50 (Plasmodium falciparum): 11 µM; EC50 [2]: 970 nM; EC50 (Leishmania donovani): > 10 µM; selectivity ratio [3]: 19; EC50 (Trypanosoma cruzi): 19 µM; IC50 at 70 h [5]: 18 µM
CCC(CC)NC(=O)c1nc(-c2cc(C)cc(Cl)c2)cnc1N | 770 | 50 | –
CC(C)NC(=O)c1nc(-c2ccccc2)cnc1N | 2600 | > 33 | –
CCC(CC)NC(=O)c1nc(-c2ccccc2)cnc1N | 320 | > 263 | solubility kinetic [6]: 6.3 µg/mL (≈ 22.2 µM); microsomal CLint at 0.5 µM [7]: 133 µL/min/mg; logD [8]: 4.3; solubility kinetic [9]: 3.1 µg/mL (≈ 10.9 µM); half-life [10]: 13 min; fraction unbound (serum albumin): 0.05
CNC(=O)c1nc(-c2ccccc2)cnc1N | > 10000 | – | –
CCCCCNC(=O)c1nc(-c2ccccc2)cnc1N | 1700 | 50 | –
CCCC(C)NC(=O)c1nc(-c2ccccc2)cnc1N (configuration not stated) | 530 | > 156 | –
Nc1ncc(-c2ccccc2)nc1C(=O)NCCCCO | 7300 | > 11 | –
Nc1ncc(-c2ccccc2)nc1C(=O)NCCO | > 10000 | – | –
Nc1ncc(-c2ccccc2)nc1C(=O)NCCN1CCCC1 | > 10000 | – | –
Nc1ncc(-c2ccccc2)nc1C(=O)NCCc1ccccc1 | > 10000 | – | –
Nc1ncc(-c2ccccc2)nc1C(=O)NCCN1CCOCC1 | > 10000 | – | –
Nc1ncc(-c2ccccc2)nc1C(=O)NCc1ccccc1 | 2600 | 32 | –
CC(C)(C)NC(=O)c1nc(-c2ccccc2)cnc1N | 3000 | > 14 | solubility kinetic [6]: < 1.6 µg/mL; microsomal CLint at 0.5 µM [7]: 246 µL/min/mg; logD [8]: 4.3; solubility kinetic [9]: < 1.6 µg/mL; half-life [10]: 7 min; fraction unbound (serum albumin): 0.015
Nc1ncc(-c2ccccc2)nc1C(=O)N1CCCC1 | 6100 | > 14 | –
Nc1ncc(-c2ccccc2)nc1C(=O)N1CCCCC1 | 4600 | > 18 | –
Nc1ncc(-c2ccccc2)nc1C(=O)N1CCOCC1 | > 10000 | – | –
CCC(C)NC(=O)c1nc(-c2ccccc2F)cnc1N (configuration not stated) | 750 | 111 | –
CCC(C)NC(=O)c1nc(-c2ccccc2Cl)cnc1N (configuration not stated) | 1100 | 76 | –
CCC(C)NC(=O)c1nc(-c2ccccc2Br)cnc1N (configuration not stated) | > 10000 | – | –
CCC(C)NC(=O)c1nc(-c2ccccc2OC)cnc1N (configuration not stated) | 5400 | > 15.4 | –
CCC(C)NC(=O)c1nc(-c2ccccc2[N+](=O)[O-])cnc1N (configuration not stated) | 890 | 94 | –
CCC(C)NC(=O)c1nc(-c2ccccc2N)cnc1N (configuration not stated) | > 10000 | – | –
CCC(C)NC(=O)c1nc(-c2ccccc2C(C)=O)cnc1N (configuration not stated) | 10000 | 7.9 | –
CCC(C)NC(=O)c1nc(-c2ccccc2C)cnc1N (configuration not stated) | 1200 | > 71 | –
CCC(C)NC(=O)c1nc(-c2ccccc2C#N)cnc1N (configuration not stated) | 350 | > 239 | EC50 (Plasmodium falciparum): 3.6 µM; solubility kinetic [6]: 1.6 µg/mL (≈ 5.42 µM); EC50 [2]: 640 nM; microsomal CLint at 0.5 µM [7]: 122 µL/min/mg; EC50 (Leishmania donovani): > 10 µM; EC50 (Trypanosoma cruzi): 11 µM; logD [8]: 3.6; solubility kinetic [9]: 1.6 µg/mL (≈ 5.42 µM); IC50 at 70 h [5]: 18 µM; half-life [10]: 14 min; fraction unbound (serum albumin): 0.05
CCC(C)NC(=O)c1nc(-c2cccc(F)c2)cnc1N (configuration not stated) | 820 | 102 | –

Compound | EC50 [1] [nM] | selectivity ratio [4] | further results
CCC(C)NC(=O)c1nc(-c2cccc(Br)c2)cnc1N (configuration not stated) | 570 | 147 | –
CCC(C)NC(=O)c1nc(-c2cccc(OC)c2)cnc1N (configuration not stated) | 410 | > 201 | –
CCC(C)NC(=O)c1nc(-c2cccc([N+](=O)[O-])c2)cnc1N (configuration not stated) | 450 | 185 | –
CCC(C)NC(=O)c1nc(-c2cccc(N)c2)cnc1N (configuration not stated) | 1100 | > 77.8 | –
CCC(C)NC(=O)c1nc(-c2cccc(C(C)=O)c2)cnc1N (configuration not stated) | > 10000 | – | –
CCC(C)NC(=O)c1nc(-c2cccc(C)c2)cnc1N (configuration not stated) | 170 | > 495 | EC50 (Plasmodium falciparum): 19 µM; EC50 [2]: 130 nM; EC50 (Leishmania donovani): > 10 µM; selectivity ratio [3]: 340; EC50 (Trypanosoma cruzi): 25 µM; IC50 at 70 h [5]: 43 µM
CCC(C)NC(=O)c1nc(-c2cccc(C#N)c2)cnc1N (configuration not stated) | 2700 | > 30.5 | –
CCC(C)NC(=O)c1nc(-c2ccc(Cl)cc2)cnc1N (configuration not stated) | 680 | 122 | solubility kinetic [6]: 3.1 µg/mL (≈ 10.2 µM); microsomal CLint at 0.5 µM [7]: 48 µL/min/mg; logD [8]: 4.5; solubility kinetic [9]: 1.6 µg/mL (≈ 5.25 µM); half-life [10]: 36 min; fraction unbound (serum albumin): 0.03
CCC(C)NC(=O)c1nc(-c2ccc(Br)cc2)cnc1N (configuration not stated) | 2200 | 38 | –
CCC(C)NC(=O)c1nc(-c2ccc(OC)cc2)cnc1N (configuration not stated) | 1300 | > 63.9 | –
CCC(C)NC(=O)c1nc(-c2ccc([N+](=O)[O-])cc2)cnc1N (configuration not stated) | 4500 | > 18.5 | –
CCC(C)NC(=O)c1nc(-c2ccc(N)cc2)cnc1N (configuration not stated) | 2900 | > 28.4 | –
CCC(C)NC(=O)c1nc(-c2ccc(C(C)=O)cc2)cnc1N (configuration not stated) | 4700 | 8.8 | –
CCC(C)NC(=O)c1nc(-c2ccc(C)cc2)cnc1N (configuration not stated) | 3740 | 22 | –
CCC(C)NC(=O)c1nc(-c2ccc(C#N)cc2)cnc1N (configuration not stated) | 2700 | > 30.4 | –
CCC(CC)NC(=O)c1nc(-c2ccccc2C#N)cnc1N | 170 | 488 | EC50 (Plasmodium falciparum): 4.8 µM; EC50 [2]: 130 nM; EC50 (Leishmania donovani): > 10 µM; selectivity ratio [3]: 80; EC50 (Trypanosoma cruzi): 15 µM; IC50 at 70 h [5]: 10 µM
CCC(CC)NC(=O)c1nc(-c2cc(C)cc(C)c2)cnc1N | 480 | 173 | –
CCC(CC)NC(=O)c1nc(-c2cccc(C(F)(F)F)c2)cnc1N | 260 | 80 | –
CCC(CC)NC(=O)c1nc(-c2cccc(Cl)c2)cnc1N | 360 | 110 | –
CCC(CC)NC(=O)c1nc(-c2ccc(F)c(Cl)c2)cnc1N | 220 | 190 | –
Nc1ncc(-c2ccc(F)cc2)nc1C(=O)NC1CCCC1 | 71 | 590 | –
Cc1cc(-c2cnc(N)c(C(=O)NC3CCCC3)n2)ccc1F | 24 | 3540 | –
N#Cc1cc(F)ccc1-c1cnc(N)c(C(=O)NC2CCCC2)n1 | 57 | 1470 | –
Nc1ncc(-c2cccc(C(F)(F)F)c2)nc1C(=O)NC1CCCC1 | 150 | 560 | –
Nc1ncc(-c2cccc(Cl)c2)nc1C(=O)NC1CCCC1 | 240 | 340 | –
Cc1cc(Cl)cc(-c2cnc(N)c(C(=O)NC3CCCC3)n2)c1 | 500 | 170 | –
Nc1ncc(-c2ccc(F)c(Cl)c2)nc1C(=O)NC1CCCC1 | 110 | 190 | –
